# From article PMC6359636, “Advances in Drug Delivery and Biomaterials: Facts and Vision” (Pharmaceutics, 2019)
# Peptide text beside a SMILES is read from it. * marks the point of attachment. 5FAM = O=C1OC2(c3ccc(O)cc3Oc3cc(O)ccc32)c2ccc(C(=O)*)cc21
# Columns and labels:
# [1] = mass spectroscopy, animal model
# [2] = ROS-scavenging activity, DPPH assay (SFNs); type: biochemical
# Description: Osteoarthritis (OA) represents a musculoskeletal pathological condition characterized by chondrocytes apoptosis, extracellular matrix degradation and consequent cartilage degeneration; the main mechanisms involved in OA onset seem to be oxidative stress and the overproduction of pro-inflammatory cytokines, such as interleukin-1β (IL-1β) and tumour necrosis factor-α (TNF-α). Systemic therapy with anti-inflammatory drugs represents the “gold standard” in OA treatment, and Celecoxib is the first choice. However, it presents limited water solubility, poor in vivo bioavailability, fast metabolism and bloodstream clearance^2. Nanomedicine is considered a good strategy to overcome these problems; in fact, nanosystems are able to improve the solubility and the bioavailability of poorly-soluble drugs, and to control/target the drug release, avoiding undesired side effects. Thanks to its biocompatibility and biodegradability, silk fibroin represents the ideal biomaterial candidate for the nanoparticle production. In this study, we selected silk fibroin nanoparticles (SFNs) as the delivery system for two anti-inflammatory hydrophobic drugs: celecoxib (CXB) and curcumin (CUR). […] The safety and efficacy of nanosystems were determined in terms of hemolytic properties, cytotoxicity, ROS-scavenging activity and anti-inflammatory potency in an OA in vitro cell model. […]
# intracellular S. aureus = assay: Intracellular antibacterial activity in keratinocytes; type: cell-based, Staphylococcus aureus; conditions: HaCaT cells
# [3] = rat, in vivo
# Description: In in vivo studies, male Sprague−Dawley rats received a femoral intravenous infusion of IND or oral administrations of MPs and free IND; the plasma of rats was analyzed by HPLC over time in order to evaluate the absolute bioavailability of oral doses.
# [4] = Franz cells, porcine cornea, preliminary data, relevant variability
# Description: To assess their ex vivo corneal permeability, permeation experiments were carried out using fresh and whole porcine corneas mounted on Franz cells.
# HeLa and G361 [5] = assay: Photodynamic viability test (MTT); type: cell-based; conditions: 414 nm irradiation
# Description: (§1) Photodynamic therapy (PDT) is currently another option for the treatment of tumors. This therapy is a combination of a photodynamically-active substance and light of a suitable wavelength. Two tumor cell cultures—HeLa and G361 were used for the in vitro study. Cells were cultured in 96-well plates with TMPyP and ZnTPPS4 photosensitizers at concentrations of 0.25 μM, 0.5 μM and 5 μM. As a light source, a diode emitter with a wavelength of 414 nm and a radiation intensity of 5 Jcm^−2, 25 Jcm^−2 was used and at irradiation times of 1 min 33 s, 7min 43 s. In this study, three measurement methods were used—a viability test (MTT), determination of ROS production and monitoring of changes in membrane potential (JC1). […] A suitable combination of photosensitizer and radiation may be an effective therapy for the treatment of cancer.
# HeLa and G361 [6] = assay: Photodynamic ROS production; type: cell-based; conditions: TMPyP: 5 μM, 25 Jcm^−2; ZnTPPS4: 0.25 μM, 5 Jcm^−2
# Description: as §1
# [7] = no reference given; cited from earlier work
# [8] = test system: Human Corneal Epithelial (HCE) cells; assay: Inflammation model in HCE cells, secreted IL-6 by ELISA; type: cell-based; conditions: 72 h
# [9] = Stability of rhNGF formulated solutions; type: physicochemical
# Description: Drug product formulation. The development of the formulation was addressed to obtain a stable rhNGF solution with suitable characteristics for ocular instillation (pH and osmolality in particular). Excipients already used in ophthalmic preparation were preferred. The stability of rhNGF formulated solutions at different concentrations was investigated in the range of temperature −20 °C–+25 °C. […] Chemical oxidative instability was minimized by the appropriate choice of preparation procedures, lowering O2 head space, using inertized containers and by the addition of an antioxidant. Consequently, methionine as component of formulation, O2 containment during the preparation and O2 head space reduction after filling and before sealing of the container were introduced.
# blood clots = assay: Blood clot resolution in murine mesentery venules; type: in vivo
# Description: (§2) Here, a novel thrombolytic nanoagent is realized by conjugating directly the clinical formulation of tPA to the porous structure of soft discoidal polymeric nanoconstructs (tPA-DPNs).
# [10] = after 3 h of exposure to serum proteins
# Description: as §2
# Description for chondrocytes: The safety and efficacy of nanosystems were determined in terms of hemolytic properties, cytotoxicity, ROS-scavenging activity and anti-inflammatory potency in an OA in vitro cell model. In particular, chondrocytes were stimulated with IL-1β to simulate an inflammatory condition, and treated with nanoparticles or free drugs.
compound,measurement,setting,value
"CN(Cc1nc2c(N)nc(N)nc2[nH]c1=O)c1ccc(C(=O)N[C@@H](CCC(=O)O)C(=O)O)cc1 [7OH-MTX, 7-hydroxymethotrexate]",metabolite status in vivo,[1],not the major metabolite
"COc1cc(/C=C/C(=O)CC(=O)/C=C/c2ccc(O)c(OC)c2)ccc1O [CUR, Curcumin]",cytotoxicity on chondrocytes,chondrocytes,highly cytotoxic
"Cc1ccc(-c2cc(C(F)(F)F)nn2-c2ccc(S(N)(=O)=O)cc2)cc1 [CXB, celecoxib]",antioxidant effect,[2],inhibitory
same,cytotoxicity on chondrocytes,chondrocytes,highly cytotoxic
"CNC(C)C1CCC(N)C(OC2C(N)CC(N)C(OC3OCC(C)(O)C(NC)C3O)C2O)O1 (stereo not drawn) [GM, gentamicin]",intracellular antibacterial activity,intracellular S. aureus,significant intracellular activity
"COc1ccc2c(c1)c(CC(=O)O)c(C)n2C(=O)c1ccc(Cl)cc1 [IND, indomethacin]",oral bioavailability,[3],about 20%
CC[C@H](C)[C@H](NC(=O)[C@H](CCCCN)NC(=O)[C@@H](NC(=O)[C@H](CCC(N)=O)NC(=O)[C@H](CCCNC(=N)N)NC(=O)CNC(=O)CNC(=O)c1ccc2c(c1)C(=O)OC21c2ccc(O)cc2Oc2cc(O)ccc21)[C@@H](C)CC)C(=O)N[C@@H](Cc1c[nH]c2ccccc12)C(=O)N[C@@H](Cc1ccccc1)C(=O)N[C@@H](CCC(N)=O)C(=O)N[C@@H](CC(N)=O)C(=O)N[C@@H](CCCNC(=N)N)C(=O)N[C@@H](CCCNC(=N)N)C(=O)N[C@@H](CCSC)C(=O)N[C@@H](CCCCN)C(=O)N[C@@H](Cc1c[nH]c2ccccc12)C(=O)N[C@@H](CCCCN)C(=O)N[C@@H](CCCCN)C(=O)O [PNTarg],permeability coefficient / diffusion relative to PNT,[4],did not influence its diffusion with respect to PNT
CC[C@H](C)[C@H](NC(=O)[C@H](CCCCN)NC(=O)[C@@H](NC(=O)[C@H](Cc1c[nH]c2ccccc12)NC(=O)[C@H](Cc1ccccc1)NC(=O)[C@H](CCC(N)=O)NC(=O)[C@H](CC(N)=O)NC(=O)[C@H](CCCNC(=N)N)NC(=O)[C@H](CCCNC(=N)N)NC(=O)[C@H](CCSC)NC(=O)[C@H](CCCCN)NC(=O)[C@H](Cc1c[nH]c2ccccc12)NC(=O)[C@H](CCCCN)NC(=O)[C@H](CCCCN)NC(=O)CNC(=O)CNC(=O)c1ccc2c(c1)C(=O)OC21c2ccc(O)cc2Oc2cc(O)ccc21)[C@@H](C)CC)C(=O)N[C@@H](CCC(N)=O)C(=O)N[C@@H](CCCNC(=N)N)C(=O)O [PNTlys] (5FAM-GGKKWKMRRNQFWIKIQR-OH),permeability coefficient / diffusion relative to PNT,[4],did not affect the behavior
C[n+]1ccc(-c2c3nc(c(-c4cc[n+](C)cc4)c4ccc([nH]4)c(-c4cc[n+](C)cc4)c4nc(c(-c5cc[n+](C)cc5)c5ccc2[nH]5)C=C4)C=C3)cc1 [TMPyP],efficacy in MTT test,HeLa and G361 [5],higher efficacy
same,ROS production,HeLa and G361 [6],more pronounced increase
CO[C@H]1/C=C/O[C@@]2(C)Oc3c(C)c(O)c4c(O)c(c(/C=N/N5CCN(C)CC5)c(O)c4c3C2=O)NC(=O)/C(C)=C\C=C\[C@H](C)[C@H](O)[C@@H](C)[C@@H](O)[C@@H](C)[C@H](OC(C)=O)[C@@H]1C [rifampicin],solubility in water,[7],0.14 % w/v
TNFα,secreted IL6 relative to control cells,[8],fivefold higher
same,secreted IL6,[8]; TNFα 10 ng/mL,up to 0.058 pg/mL/n° cells
rhNGF: human recombinant Nerve Growth Factor,deamidation on storage,"[9]; formulated solutions at different concentrations, −20 °C–+25 °C",no deamidation was observed
same,oxidation on storage,[9]; formulations after 3–9 months of storage,only an oxidized rhNGF form was observed in some cases
tPA-DPNs: clinical formulation of tPA conjugated to soft discoidal polymeric nanoconstructs,clots dissolved / vessels,"blood clots; 1.0 mg/kg, about 1 tenth of the clinical dose",60%
same,blood clots resolved / vessels recanalized,"blood clots; intravenous, 2.5 mg/kg",~90%
same,original activity preserved,[10],over 60%
